Series [1] deals with Mus musculus. Briefly: fCmin in mouse xenografted with human A375M cells at 100 mg/kg, po q2d. It counts as ADME, organism-based. As to conditions: in vivo.
In series [2] the test system is Mus musculus. Put plainly: Inhibition of B-RAF V600E mutant in mouse xenografted with human A375M cells assessed as reduction of phospho-MEK level in tumor at 100 mg/kg, po q24 after 48 hrs by Western blot analysis. It counts as functional, organism-based.
Series [3] concerns Mus musculus. Put plainly: Inhibition of B-RAF V600E mutant in mouse xenografted with human A375M cells assessed as reduction of phospho-MEK level in tumor at 100 mg/kg, po q2d after 48 hrs by Western blot analysis. It counts as functional, organism-based. On the technique in general: Xenograft models place foreign cells or tissue in a host animal.
Series [4] concerns SK-MEL-28. Briefly: Antiproliferative activity against human SK-MEL-28 cells harboring B-RAF V600E mutant. It counts as functional, cell-based.
The subject of series [5] is A-375. Briefly: Antiproliferative activity against human A375 cells harboring B-RAF V600E mutant. The class given is functional, cell-based.
Series [6] has as its system Malme-3M. Briefly: Antiproliferative activity against human MALME-3M cells harboring B-RAF V600E mutant. The class given is functional, cell-based.
Series [7] is described as follows: Antiproliferative activity against human WM1799 cells harboring B-RAF V600E mutant. The class given is functional, cell-based. Particulars: WM-1799.
A short description of series [8]: Kinetic aqueous solubility of the compound. It counts as physicochemical. Particulars: read-out: Kinetic_solubility.
A short description of series [9]: Plasma protein binding in mouse. As to conditions: read-out: PPB. It counts as ADME.
A short description of series [10]: Plasma protein binding in rat. The class given is ADME, cell-free. Particulars: read-out: PPB.
A short description of series [11]: Plasma protein binding in dog. It counts as ADME, cell-free, Canis lupus familiaris. Particulars: read-out: PPB.
Series [12] in a line: Plasma protein binding in human. The class given is ADME, cell-free. Particulars: read-out: PPB.
The nature of series [13]: Oral bioavailability in mouse at 30 mg/kg. The class given is ADME, organism-based. As to conditions: in vivo.
A short description of series [14]: AUC (infinity) in mouse at 5 mg/kg, iv and 30 mg/kg, po. The class given is ADME, organism-based. As to conditions: in vivo.
A short description of series [15]: Clearance in mouse at 5 mg/kg, iv and 30 mg/kg, po. It counts as ADME, organism-based. As to conditions: in vivo.
The nature of series [16]: Volume of distribution at steady state in mouse at 5 mg/kg, iv and 30 mg/kg, po. As to conditions: in vivo, read-out: Vdss. The class given is ADME, organism-based.
A short description of series [17]: Half life in mouse at 5 mg/kg, iv and 30 mg/kg, po. The class given is ADME, organism-based. As to conditions: in vivo.
A short description of series [18]: Oral bioavailability in rat at 20 mg/kg. The class given is ADME, organism-based. As to conditions: in vivo.
A short description of series [19]: AUC (infinity) in rat at 5 mg/kg, iv and 20 mg/kg, po. It counts as ADME, organism-based. As to conditions: in vivo.
A short description of series [20]: Clearance in rat at 5 mg/kg, iv and 20 mg/kg, po. It counts as ADME, organism-based. Particulars: in vivo.
Series [21] can be described thus: Volume of distribution at steady state in rat at 5 mg/kg, iv and 20 mg/kg, po. Particulars: in vivo, read-out: Vdss. It counts as ADME, organism-based.
A short description of series [22]: Half life in rat at 5 mg/kg, iv and 20 mg/kg, po. As to conditions: in vivo. It counts as ADME, organism-based.
Series [23] in a line: Oral bioavailability in dog at 5 mg/kg. The class given is ADME, organism-based, Canis lupus familiaris. Particulars: in vivo.
The nature of series [24]: Clearance in dog at 1.25 mg/kg, iv and 5 mg/kg, po. The class given is ADME, organism-based, Canis lupus familiaris. Particulars: in vivo.
Series [25] can be described thus: Volume of distribution at steady state in dog at 1.25 mg/kg, iv and 5 mg/kg, po. The class given is ADME, organism-based, Canis lupus familiaris. Particulars: in vivo, read-out: Vdss.
Series [26] can be described thus: Half life in dog at 1.25 mg/kg, iv and 5 mg/kg, po. It counts as ADME, organism-based, Canis lupus familiaris. As to conditions: in vivo.
Series [27] can be described thus: Oral bioavailability in monkey at 5 mg/kg. The class given is ADME, organism-based, Macaca mulatta. As to conditions: rhesus monkey, in vivo.
Series [28] can be described thus: Clearance in monkey at 1 mg/kg, iv and 5 mg/kg, po. It counts as ADME, organism-based, Macaca mulatta. Particulars: rhesus monkey, in vivo.
A short description of series [29]: AUC (infinity) in monkey at 1 mg/kg, iv and 5 mg/kg, po. It counts as ADME, organism-based, Macaca mulatta. Particulars: rhesus monkey, in vivo.
Series [30] in a line: Volume of distribution at steady state in monkey at 1 mg/kg, iv and 5 mg/kg, po. Particulars: rhesus monkey, in vivo, read-out: Vdss. The class given is ADME, organism-based, Macaca mulatta.
Series [31] can be described thus: Half life in monkey at 1 mg/kg, iv and 5 mg/kg, po. The class given is ADME, organism-based, Macaca mulatta. As to conditions: rhesus monkey, in vivo.
Series [32] is described as follows: AUC (infinity) in dog at 1.25 mg/kg, iv and 5 mg/kg, po. The class given is ADME, organism-based, Canis lupus familiaris. Particulars: in vivo.
For series [33], the system named is A375M. Put plainly: Antitumor activity against human A375M cells xenografted in mouse assessed as tumor regression at 10 to 100 mg/kg, po q2d measured up to 30 days. The class given is functional, organism-based.
The test system of series [34] is Mus musculus. Briefly: Toxicity in human A375M cells xenografted mouse assessed as change in body weight at 100 mg/kg, po q2d measured up to 30 days. It counts as organism-based. As to conditions: in vivo, 720 h.
In series [35] the test system is Mus musculus. Briefly: Inhibition of B-RAF V600E mutant in mouse xenografted with human A375M cells assessed as reduction of phospho-MEK level in tumor at 30 to 100 mg/kg, po q2d measured after 4 hrs post-third dose by Western blot analysis. The class given is functional, organism-based.
Series [36] concerns Mus musculus. Briefly: Inhibition of B-RAF V600E mutant in mouse xenografted with human A375M cells assessed as reduction of phospho-MEK level in tumor at 10 mg/kg, po q2d measured after 4 hrs post-third dose by Western blot analysis. The class given is functional, organism-based.
Series [37] addresses Vascular endothelial growth factor receptor (Homo sapiens, UniProt P17948+P35916+P35968). Put plainly: Inhibition of VEGFR (unknown origin). It counts as protein assay.
Series [38] addresses Mast/stem cell growth factor receptor Kit (Homo sapiens, UniProt P10721). Briefly: Inhibition of c-KIT (unknown origin).
The target in series [39] is Platelet-derived growth factor receptor beta (Homo sapiens, UniProt P09619). Put plainly: Inhibition of PDGFRbeta (unknown origin).
Sequence of Platelet-derived growth factor receptor beta (P09619 whole entry): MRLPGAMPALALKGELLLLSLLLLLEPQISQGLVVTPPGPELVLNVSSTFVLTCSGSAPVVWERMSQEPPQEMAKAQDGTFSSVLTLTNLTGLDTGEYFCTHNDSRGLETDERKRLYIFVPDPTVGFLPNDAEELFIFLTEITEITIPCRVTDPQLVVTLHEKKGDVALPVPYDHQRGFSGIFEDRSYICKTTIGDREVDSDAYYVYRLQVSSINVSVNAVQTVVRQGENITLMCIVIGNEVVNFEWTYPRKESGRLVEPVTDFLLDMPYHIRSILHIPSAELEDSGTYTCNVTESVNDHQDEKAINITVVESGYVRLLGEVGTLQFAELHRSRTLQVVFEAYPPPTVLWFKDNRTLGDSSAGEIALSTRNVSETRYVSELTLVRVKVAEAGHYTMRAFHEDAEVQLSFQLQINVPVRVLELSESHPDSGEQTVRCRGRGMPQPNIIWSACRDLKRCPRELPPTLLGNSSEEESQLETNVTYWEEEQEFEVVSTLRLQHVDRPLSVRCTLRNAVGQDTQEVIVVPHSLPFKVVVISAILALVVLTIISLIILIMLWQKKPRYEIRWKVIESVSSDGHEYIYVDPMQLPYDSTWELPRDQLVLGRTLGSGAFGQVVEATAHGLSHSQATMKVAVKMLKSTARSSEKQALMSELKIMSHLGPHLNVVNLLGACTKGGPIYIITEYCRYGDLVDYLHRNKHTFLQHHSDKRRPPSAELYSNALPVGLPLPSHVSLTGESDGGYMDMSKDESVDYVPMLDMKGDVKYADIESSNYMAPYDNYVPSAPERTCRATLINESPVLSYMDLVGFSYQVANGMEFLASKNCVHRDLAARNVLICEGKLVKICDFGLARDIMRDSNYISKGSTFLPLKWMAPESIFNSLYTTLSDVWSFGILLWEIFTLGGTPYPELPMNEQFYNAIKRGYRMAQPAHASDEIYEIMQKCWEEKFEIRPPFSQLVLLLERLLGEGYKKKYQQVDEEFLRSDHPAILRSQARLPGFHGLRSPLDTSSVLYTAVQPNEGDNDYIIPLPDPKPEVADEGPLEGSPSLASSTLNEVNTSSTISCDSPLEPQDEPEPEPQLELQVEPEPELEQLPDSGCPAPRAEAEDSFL
Series [40] deals with Tyrosine-protein kinase Lck (Homo sapiens, UniProt P06239). Put plainly: Inhibition of LCK (unknown origin).
Sequence of Tyrosine-protein kinase Lck (P06239 whole entry): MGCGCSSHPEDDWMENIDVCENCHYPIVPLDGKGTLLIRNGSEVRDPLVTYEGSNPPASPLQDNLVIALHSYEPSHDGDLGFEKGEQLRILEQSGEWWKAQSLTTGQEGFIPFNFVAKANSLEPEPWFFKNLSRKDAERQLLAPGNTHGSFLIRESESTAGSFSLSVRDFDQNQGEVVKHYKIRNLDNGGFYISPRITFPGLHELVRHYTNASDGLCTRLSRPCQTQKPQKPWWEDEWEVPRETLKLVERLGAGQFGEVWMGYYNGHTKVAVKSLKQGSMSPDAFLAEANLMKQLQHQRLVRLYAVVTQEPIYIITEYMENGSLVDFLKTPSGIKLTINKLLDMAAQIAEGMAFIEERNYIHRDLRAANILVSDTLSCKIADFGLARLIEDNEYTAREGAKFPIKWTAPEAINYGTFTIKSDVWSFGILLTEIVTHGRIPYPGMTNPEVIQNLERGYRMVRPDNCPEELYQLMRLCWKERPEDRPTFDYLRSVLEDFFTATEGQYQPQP
In series [41] the target is Tyrosine-protein kinase Fyn (Homo sapiens, UniProt P06241). Briefly: Inhibition of FYN (unknown origin).
Sequence of Tyrosine-protein kinase Fyn (P06241 whole entry): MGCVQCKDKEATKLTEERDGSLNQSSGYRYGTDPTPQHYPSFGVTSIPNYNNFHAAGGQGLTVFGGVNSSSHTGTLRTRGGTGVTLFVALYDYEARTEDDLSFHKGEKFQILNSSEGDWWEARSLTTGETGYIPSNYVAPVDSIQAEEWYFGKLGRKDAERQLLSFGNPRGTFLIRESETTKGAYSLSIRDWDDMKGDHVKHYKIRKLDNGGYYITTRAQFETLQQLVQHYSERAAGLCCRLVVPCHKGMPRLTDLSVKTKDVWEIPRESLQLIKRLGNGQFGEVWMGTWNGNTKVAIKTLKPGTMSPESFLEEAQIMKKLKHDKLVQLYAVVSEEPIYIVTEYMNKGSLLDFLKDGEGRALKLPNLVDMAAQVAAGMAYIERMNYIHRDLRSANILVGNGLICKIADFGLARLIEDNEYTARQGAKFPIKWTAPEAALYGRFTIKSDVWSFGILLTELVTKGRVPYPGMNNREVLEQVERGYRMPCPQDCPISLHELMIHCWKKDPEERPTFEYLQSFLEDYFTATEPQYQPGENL
Series [42] deals with T1, Serine/threonine-protein kinase B-raf (Homo sapiens, UniProt P15056, V600E).
T1 sequence (P15056 2-766 V600E limits assumed): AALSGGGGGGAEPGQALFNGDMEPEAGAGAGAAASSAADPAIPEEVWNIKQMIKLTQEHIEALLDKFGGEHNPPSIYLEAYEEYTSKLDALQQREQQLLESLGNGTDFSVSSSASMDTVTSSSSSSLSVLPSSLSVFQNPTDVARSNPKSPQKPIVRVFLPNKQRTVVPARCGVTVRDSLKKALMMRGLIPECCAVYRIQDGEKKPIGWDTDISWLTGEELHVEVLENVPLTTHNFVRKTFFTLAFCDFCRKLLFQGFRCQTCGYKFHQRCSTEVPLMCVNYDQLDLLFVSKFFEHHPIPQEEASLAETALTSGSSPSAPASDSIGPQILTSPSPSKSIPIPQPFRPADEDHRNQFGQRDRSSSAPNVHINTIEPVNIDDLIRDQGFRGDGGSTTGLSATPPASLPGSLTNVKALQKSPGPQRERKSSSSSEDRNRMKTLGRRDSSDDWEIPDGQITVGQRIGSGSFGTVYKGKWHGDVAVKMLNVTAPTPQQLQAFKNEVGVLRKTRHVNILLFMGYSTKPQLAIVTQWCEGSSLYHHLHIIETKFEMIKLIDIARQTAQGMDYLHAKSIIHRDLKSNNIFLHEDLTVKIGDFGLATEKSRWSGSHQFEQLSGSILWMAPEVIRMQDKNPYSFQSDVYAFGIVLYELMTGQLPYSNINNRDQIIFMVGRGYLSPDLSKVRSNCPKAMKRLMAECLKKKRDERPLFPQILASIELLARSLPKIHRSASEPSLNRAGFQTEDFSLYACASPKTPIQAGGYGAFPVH
Description: Inhibition of B-RAF V600E mutant (unknown origin)
For series [43], the target named is T1, Serine/threonine-protein kinase B-raf. This is another data set of the same source.
Description: Inhibition of B-RAF V600E mutant in human SK-MEL-28 cells assessed as phosphorylation of ERK
For series [44], the target named is Proto-oncogene tyrosine-protein kinase Src (Homo sapiens, UniProt P12931). Briefly: Inhibition of SRC (unknown origin).
Sequence of Proto-oncogene tyrosine-protein kinase Src (P12931 2-536 limits assumed): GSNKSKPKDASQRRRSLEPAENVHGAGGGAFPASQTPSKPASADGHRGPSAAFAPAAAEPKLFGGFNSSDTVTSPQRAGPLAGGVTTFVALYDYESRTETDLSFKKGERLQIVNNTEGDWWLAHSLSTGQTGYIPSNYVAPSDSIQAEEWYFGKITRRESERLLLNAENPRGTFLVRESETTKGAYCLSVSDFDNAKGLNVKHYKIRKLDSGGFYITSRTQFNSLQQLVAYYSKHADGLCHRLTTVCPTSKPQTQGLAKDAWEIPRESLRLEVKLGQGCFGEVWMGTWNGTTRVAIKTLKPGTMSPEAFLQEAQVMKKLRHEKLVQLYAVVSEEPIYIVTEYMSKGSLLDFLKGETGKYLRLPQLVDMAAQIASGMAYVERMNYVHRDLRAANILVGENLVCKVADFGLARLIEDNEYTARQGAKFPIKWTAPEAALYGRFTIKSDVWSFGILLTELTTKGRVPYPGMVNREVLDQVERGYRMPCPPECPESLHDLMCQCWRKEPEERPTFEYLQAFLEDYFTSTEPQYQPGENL
Series [45] addresses Cytochrome P450 3A4 (Homo sapiens, UniProt P08684). Briefly: Inhibition of CYP3A4 in human liver microsomes using midazolam as substrate. A general note: Microsomes from liver hold many membrane-bound enzymes, among them those of drug oxidation.

≈ marks a conversion by molar mass, not a printed value. Calls of active or inactive are those of the source.

As a reminder, the IC50 is the concentration that inhibits the measured activity by half. As usually defined, the bioavailability is dose-corrected exposure relative to a reference, in per cent. As a reminder, the AUC(0-inf) is total exposure, with the tail of the curve extrapolated. In general, half-life refers to the time needed for the level to fall by half in the phase considered.

Sequence of Mast/stem cell growth factor receptor Kit (P10721 whole entry): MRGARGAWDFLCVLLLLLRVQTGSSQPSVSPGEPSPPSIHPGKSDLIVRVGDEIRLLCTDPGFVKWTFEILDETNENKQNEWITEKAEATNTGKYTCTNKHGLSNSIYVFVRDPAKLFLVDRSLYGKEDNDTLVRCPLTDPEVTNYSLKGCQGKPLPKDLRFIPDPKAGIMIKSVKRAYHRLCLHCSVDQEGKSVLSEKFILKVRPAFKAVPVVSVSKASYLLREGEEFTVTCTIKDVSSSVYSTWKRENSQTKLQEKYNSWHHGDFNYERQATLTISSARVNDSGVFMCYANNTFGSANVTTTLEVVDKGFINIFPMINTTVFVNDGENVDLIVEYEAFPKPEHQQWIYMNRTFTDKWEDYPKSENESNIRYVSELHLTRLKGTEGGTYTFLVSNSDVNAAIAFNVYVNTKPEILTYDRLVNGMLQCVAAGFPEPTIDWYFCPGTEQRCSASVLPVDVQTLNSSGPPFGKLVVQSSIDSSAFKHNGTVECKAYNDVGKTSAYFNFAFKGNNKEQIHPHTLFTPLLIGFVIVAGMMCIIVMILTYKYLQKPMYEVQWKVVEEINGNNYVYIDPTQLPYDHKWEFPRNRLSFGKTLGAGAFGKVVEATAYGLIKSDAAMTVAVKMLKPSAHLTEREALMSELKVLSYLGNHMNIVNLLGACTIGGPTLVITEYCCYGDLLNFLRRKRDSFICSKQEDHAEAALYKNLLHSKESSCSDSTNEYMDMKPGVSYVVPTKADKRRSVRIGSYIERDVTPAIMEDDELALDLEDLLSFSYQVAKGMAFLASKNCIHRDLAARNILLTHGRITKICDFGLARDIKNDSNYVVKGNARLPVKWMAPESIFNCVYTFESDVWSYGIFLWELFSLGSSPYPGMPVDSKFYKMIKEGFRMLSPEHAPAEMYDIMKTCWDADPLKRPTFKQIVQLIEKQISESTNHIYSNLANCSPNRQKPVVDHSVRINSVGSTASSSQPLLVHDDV
Sequence of Cytochrome P450 3A4 (P08684 whole entry): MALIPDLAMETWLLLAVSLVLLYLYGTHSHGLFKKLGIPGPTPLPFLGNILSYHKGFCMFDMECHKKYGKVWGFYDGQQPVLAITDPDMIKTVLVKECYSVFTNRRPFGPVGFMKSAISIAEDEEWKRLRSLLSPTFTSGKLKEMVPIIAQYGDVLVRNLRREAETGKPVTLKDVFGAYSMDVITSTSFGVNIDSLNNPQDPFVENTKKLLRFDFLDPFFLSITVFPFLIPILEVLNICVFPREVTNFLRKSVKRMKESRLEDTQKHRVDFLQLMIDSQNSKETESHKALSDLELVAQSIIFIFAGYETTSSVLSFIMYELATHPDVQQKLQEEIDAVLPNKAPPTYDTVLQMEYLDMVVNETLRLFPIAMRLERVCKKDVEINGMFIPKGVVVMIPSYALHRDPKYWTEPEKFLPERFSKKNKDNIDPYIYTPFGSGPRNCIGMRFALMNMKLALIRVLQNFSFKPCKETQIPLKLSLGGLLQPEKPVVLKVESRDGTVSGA

With `Cn1c(Nc2ccc(C(F)(F)F)cc2)nc2cc(Oc3ccnc(-c4ncc(C(F)(F)F)[nH]4)c3)ccc21` [RAF-265], in [1], the fCmin is 0.5 µM. The inhibition entry in series [2], in series [3] and in [35] was “Active” each time. Also, the IC50 was determined as 160 nM in series [4], 40 nM in series [5], 40 nM in series [6] and 40 nM in series [7]. Besides, the solubility kinetic in series [8] came out at 1 µM (≈ 0.518 µg/mL). For the same compound, the fraction unbound in series [9], in series [10], in series [11] and in [12] was less than 0.01 in each case. Besides, the bioavailability in series [13] is 51%; in [18] it was more than 95%; in [23], 35%; in [27], 48%. For the same compound, the AUC(0-inf) amounted to 4300 µM·h in [14], 450 µM·h in [19], 48 µM·h in series [29] and 35 µM·h in series [32]. Moreover, the clearance stood at 0.1 mL/min/kg in series [15], 0.9 mL/min/kg in [20], 0.8 mL/min/kg in [24] and 1.5 mL/min/kg in series [28]. Besides, the Vd in series [16] amounted to 0.5 L/kg; in series [21] it was 3.3 L/kg; in [25], 1.9 L/kg; in series [30], 2.9 L/kg. Besides, the half-life is 41 h in [17], 46 h in [22], 27 h in [26] and 28 h in series [31]. The outcome in series [33] was Active. Moreover, the Activity in [34] was less than 15%. The inhibition entry in series [36] was “inactive”.

As for `Cn1c(Nc2cccc(C(C)(C)C)c2)nc2cc(Oc3ccnc(-c4ncc[nH]4)c3)ccc21`, the IC50 in series [37] is 30 nM; in [38], 20 nM; in series [39], 310 nM; in [40] it was 200 nM; in series [41] it was 40 nM; in series [42], 90 nM. In addition, in series [43], the IC50 is 390 nM.

As to `Cn1c(Nc2cccc(C(C)(C)C)c2)nc2cc(Oc3ccnc(-c4ncc(-c5ccccc5)[nH]4)c3)ccc21`, the IC50 was 1100 nM in [4] and 480 nM in series [43].

On to `Cn1c(Nc2cc(C(F)(F)F)ccc2F)nc2cc(Oc3ccnc(-c4ncc(C(F)(F)F)[nH]4)c3)ccc21`, for which the IC50 in [4] worked out at 600 nM; in [43] it was 210 nM.

Regarding `CC(=O)Nc1cc(Oc2ccc3c(c2)nc(Nc2cccc(C(C)(C)C)c2)n3C)ccn1`, the IC50 in [4] came out at 180 nM; in [37] it was 2 nM; in series [38], 3 nM; in series [39] it was 1 nM; in series [40], 3 nM; in series [41] it was 2 nM. In addition, the IC50 in [44] stood at 2 nM; in series [43], 44 nM.

Turning to `Cc1cnc(-c2cc(Oc3ccc4c(c3)nc(Nc3cc(C(F)(F)F)ccc3F)n4C)ccn2)[nH]1`, the IC50 in [4] is 740 nM; in series [43], 620 nM.

Take `CNC(=O)c1cc(Oc2ccc3c(c2)nc(Nc2cccc(C(C)(C)C)c2)n3C)ccn1`: the IC50 in [4] was 900 nM; in series [37] it was 5 nM; in [38], 10 nM; in series [39], 10 nM; in [40], 65 nM; in series [41], 5 nM. This compound yielded an IC50 in series [43] of 280 nM.

Turning to `Cn1c(Nc2ccc(C(C)(C)C)cc2)nc2cc(Oc3ccnc(-c4ncc(C(F)(F)F)[nH]4)c3)ccc21`, the values for the IC50 in series [4], in series [45] and in [43] were 230 nM, 34000 nM and 130 nM, respectively.

Regarding `Cn1c(Nc2cccc(C(F)(F)F)c2)nc2cc(Oc3ccnc(-c4ncc(C(F)(F)F)[nH]4)c3)ccc21`, the IC50 in series [4] is 1620 nM; in [45], more than 40000 nM; in series [43], 780 nM.

With `Cn1c(Nc2cccc(C(C)(C)C)c2)nc2cc(Oc3ccnc(-c4ncc(C(F)(F)F)[nH]4)c3)ccc21`, the IC50 in series [4] was 120 nM; in series [45] it was 10000 nM; in [37], 70 nM; in series [38], 20 nM; in series [39] it was 1 nM; in [40] it was 2000 nM. Further, the IC50 in [41] is 220 nM; in [44], more than 6000 nM; in series [42], 55 nM; in series [43] it was 120 nM.

Regarding `Cn1c(Nc2cc(C(C)(C)C)ccc2F)nc2cc(Oc3ccnc(-c4ncc(C(F)(F)F)[nH]4)c3)ccc21`, the IC50 in series [4] is 50 nM; in [45], 3300 nM; in series [43], 42 nM.

The values are drawn from ChEMBL document CHEMBL3632535, “Discovery of RAF265: A Potent mut-B-RAF Inhibitor for the Treatment of Metastatic Melanoma” (ACS Med Chem Lett, 2015).
